{"source": "patent US10968462B2", "about": "“Plants having increased tolerance to herbicides” (BASF AGRO B.V., priority 2013, dated 2021)", "system": "transgenic T2 soybean plants", "assay": "Soybean greenhouse spray test, T2 plants at V2-V3 stage, injury 0-9 point scale 1 or 2 weeks after treatment (Tables 7C-7E)", "type": "in vivo, Glycine max", "settings": "2 week after treatment", "procedure": "Soybean cv Jake was transformed as previously described by Siminszky et al., Phytochem Rev. 5:445-458 (2006). After regeneration, transformants were transplanted to soil in small pots, placed in growth chambers (16 hr day/8 hr night; 25° C. day/23° C. night; 65% relative humidity; 130-150 microE m-2 s-1) and subsequently tested for the presence of the T-DNA via Taqman analysis. After a few weeks, healthy, transgenic positive, single copy events were transplanted to larger pots and allowed to grow in the growth chamber. An optimal shoot for cutting was about 3-4 inches tall, with at least two nodes present. Each cutting was taken from the original transformant (mother plant) and dipped into rooting hormone powder (indole-3-butyric acid, IBA). The cutting was then placed in oasis wedges inside a bio-dome. The mother plant was taken to maturity in the greenhouse and harvested for seed. Wild type cuttings were also taken simultaneously to serve as negative controls. The cuttings were kept in the bio-dome for 5-7 days and then transplanted to 3 inch pots and then acclimated in the growth chamber for two more days. […] Other herbicides, such as AHAS (ALS—Acetolactate Synthase) inhibiting herbicides were also tested in a similar fashion for confirming cross resistance to other modes of action: Tritosulfuron, Florasulam, Metsulfuron, Rimsulfuron. Herbicide injury evaluations were taken at 2, 7, 14 and 21 days after treatment.\n• 0 No Injury • 1 Minimal injury, only a few patches of leaf injury or chlorosis. • 2 Minimal injury with slightly stronger chlorosis. Overall growth points remain undamaged. • 3 Slightly stronger injury on secondary leaf tissue, but primary leaf and growth points are still undamaged. • 4 Overall plant morphology is slightly different, some chlorosis and necrosis in secondary growth points and leaf tissue. Stems are intact. Regrowth is highly probable within 1 week. • 5 Overall plant morphology is clearly different, some chlorosis and necrosis on a few leaves and growth points, but primary growth point is intact. Stem tissue is still green. Regrowth is highly probably within 1 week. • 6 Strong injury can be seen on the new leaflet growth. Plant has a high probability to survive only through regrowth at different growth points. Most of the leaves are chlorotic/necrotic but stem tissue is still green. May have regrowth but with noticeable injured appearance. • 7 Most of the active growth points are necrotic. There may be a single growth point that could survive and may be partially chlorotic or green and partially necrotic. Two leaves may still be chlorotic with some green; the rest of the plant including stem is necrotic. • 8 Plant will likely die, and all growth points are necrotic. One leaf may still be chlorotic with some green. The remainder of the plant is necrotic. • 9 Plant is dead. • * Not tested", "data": [{"compound": "CCS(=O)(=O)c1cccnc1S(=O)(=O)NC(=O)Nc1nc(OC)cc(OC)n1", "note": "[Rimsulfuron]", "values": [{"measurement": "injury on a 0-9 point scale", "setting": "Bradi_1g07930.1 (Event 1), 10 g ai/ha", "result": 6.0}, {"measurement": "injury on a 0-9 point scale", "setting": "Bradi_1g07930.1 (Event 1), Rimsulfuron 1.25 g ai/ha", "result": 6.0}, {"measurement": "injury on a 0-9 point scale", "setting": "Bradi_1g07930.1 (Event 1), Rimsulfuron 2.5 g ai/ha", "result": 6.0}, {"measurement": "injury on a 0-9 point scale", "setting": "Bradi_1g07930.1 (Event 1), Rimsulfuron 5 g ai/ha", "result": 6.0}, {"measurement": "injury on a 0-9 point scale", "setting": "R128A_F420V (Event 1), 10 g ai/ha", "result": 7.5}, {"measurement": "injury on a 0-9 point scale", "setting": "R128A_F420V (Event 1), Rimsulfuron 1.25 g ai/ha", "result": 6.5}, {"measurement": "injury on a 0-9 point scale", "setting": "R128A_F420V (Event 1), Rimsulfuron 5 g ai/ha", "result": 7.0}, {"measurement": "injury on a 0-9 point scale", "setting": "R128A_F420V (Event 2), 10 g ai/ha", "result": 7.0}, {"measurement": "injury on a 0-9 point scale", "setting": "R128A_F420V (Event 2), Rimsulfuron 1.25 g ai/ha", "result": 6.0}, {"measurement": "injury on a 0-9 point scale", "setting": "R128A_F420V (Event 2), Rimsulfuron 2.5 g ai/ha", "result": 7.0}, {"measurement": "injury on a 0-9 point scale", "setting": "R128A_F420V (Event 2), Rimsulfuron 5 g ai/ha", "result": 7.0}, {"measurement": "injury on a 0-9 point scale", "setting": "R128A_F420V + Bradi_1g07930.1 (Event 1), 10 g ai/ha", "result": 4.3}, {"measurement": "injury on a 0-9 point scale", "setting": "R128A_F420V + Bradi_1g07930.1 (Event 1), Rimsulfuron 1.25 g ai/ha", "result": 4.0}, {"measurement": "injury on a 0-9 point scale", "setting": "R128A_F420V + Bradi_1g07930.1 (Event 1), Rimsulfuron 2.5 g ai/ha", "result": 3.5}, {"measurement": "injury on a 0-9 point scale", "setting": "R128A_F420V + Bradi_1g07930.1 (Event 1), Rimsulfuron 5 g ai/ha", "result": 3.3}, {"measurement": "injury on a 0-9 point scale", "setting": "R128A_F420V + Bradi_1g07930.1 (Event 2), 10 g ai/ha", "result": 5.0}, {"measurement": "injury on a 0-9 point scale", "setting": "R128A_F420V + Bradi_1g07930.1 (Event 2), Rimsulfuron 1.25 g ai/ha", "result": 3.0}, {"measurement": "injury on a 0-9 point scale", "setting": "R128A_F420V + Bradi_1g07930.1 (Event 2), Rimsulfuron 2.5 g ai/ha", "result": 4.0}, {"measurement": "injury on a 0-9 point scale", "setting": "R128A_F420V + Bradi_1g07930.1 (Event 2), Rimsulfuron 5 g ai/ha", "result": 4.5}, {"measurement": "injury on a 0-9 point scale", "setting": "wild type, 10 g ai/ha", "result": 8.5}, {"measurement": "injury on a 0-9 point scale", "setting": "wild type, Rimsulfuron 1.25 g ai/ha", "result": 8.0}, {"measurement": "injury on a 0-9 point scale", "setting": "wild type, Rimsulfuron 2.5 g ai/ha", "result": 8.5}, {"measurement": "injury on a 0-9 point scale", "setting": "wild type, Rimsulfuron 5 g ai/ha", "result": 8.3}]}, {"compound": "COc1nc(NC(=O)NS(=O)(=O)c2ccccc2C(F)(F)F)nc(C(F)(F)F)n1", "note": "[Tritosulfuron]", "values": [{"measurement": "injury on a 0-9 point scale", "setting": "Bradi_1g07930.1 (Event 1), 4.375 g ai/ha", "result": 1.5}, {"measurement": "injury on a 0-9 point scale", "setting": "Bradi_1g07930.1 (Event 1), 8.75 g ai/ha", "result": 0.5}, {"measurement": "injury on a 0-9 point scale", "setting": "Bradi_1g07930.1 (Event 1), 17.5 g ai/ha", "result": 1.7}, {"measurement": "injury on a 0-9 point scale", "setting": "Bradi_1g07930.1 (Event 1), 35 g ai/ha", "result": 2.3}, {"measurement": "injury on a 0-9 point scale", "setting": "Bradi_1g07930.1 (Event 1), 70 g ai/ha", "result": 1.5}, {"measurement": "injury on a 0-9 point scale", "setting": "Bradi_1g07930.1 (Event 1), 140 g ai/ha", "result": 0.3}, {"measurement": "injury on a 0-9 point scale", "setting": "R128A_F420V (Event 1), 4.375 g ai/ha", "result": 5.3}, {"measurement": "injury on a 0-9 point scale", "setting": "R128A_F420V (Event 1), 8.75 g ai/ha", "result": 6.0}, {"measurement": "injury on a 0-9 point scale", "setting": "R128A_F420V (Event 1), 17.5 g ai/ha", "result": 7.0}, {"measurement": "injury on a 0-9 point scale", "setting": "R128A_F420V (Event 1), 35 g ai/ha", "result": 7.0}, {"measurement": "injury on a 0-9 point scale", "setting": "R128A_F420V (Event 1), 70 g ai/ha", "result": 7.0}, {"measurement": "injury on a 0-9 point scale", "setting": "R128A_F420V (Event 1), 140 g ai/ha", "result": 6.5}, {"measurement": "injury on a 0-9 point scale", "setting": "R128A_F420V (Event 2), 4.375 g ai/ha", "result": 6.0}, {"measurement": "injury on a 0-9 point scale", "setting": "R128A_F420V (Event 2), 8.75 g ai/ha", "result": 6.5}, {"measurement": "injury on a 0-9 point scale", "setting": "R128A_F420V (Event 2), 17.5 g ai/ha", "result": 7.0}, {"measurement": "injury on a 0-9 point scale", "setting": "R128A_F420V (Event 2), 35 g ai/ha", "result": 7.0}, {"measurement": "injury on a 0-9 point scale", "setting": "R128A_F420V (Event 2), 70 g ai/ha", "result": 7.0}, {"measurement": "injury on a 0-9 point scale", "setting": "R128A_F420V (Event 2), 140 g ai/ha", "result": 8.0}, {"measurement": "injury on a 0-9 point scale", "setting": "R128A_F420V + Bradi_1g07930.1 (Event 1), 4.375 g ai/ha", "result": 0.3}, {"measurement": "injury on a 0-9 point scale", "setting": "R128A_F420V + Bradi_1g07930.1 (Event 1), 8.75 g ai/ha", "result": 0.3}, {"measurement": "injury on a 0-9 point scale", "setting": "R128A_F420V + Bradi_1g07930.1 (Event 1), 17.5 g ai/ha", "result": 1.5}, {"measurement": "injury on a 0-9 point scale", "setting": "R128A_F420V + Bradi_1g07930.1 (Event 1), 35 g ai/ha", "result": 2.0}, {"measurement": "injury on a 0-9 point scale", "setting": "R128A_F420V + Bradi_1g07930.1 (Event 1), 70 g ai/ha", "result": 2.7}, {"measurement": "injury on a 0-9 point scale", "setting": "R128A_F420V + Bradi_1g07930.1 (Event 1), 140 g ai/ha", "result": 1.3}, {"measurement": "injury on a 0-9 point scale", "setting": "R128A_F420V + Bradi_1g07930.1 (Event 2), 4.375 g ai/ha", "result": 1.0}, {"measurement": "injury on a 0-9 point scale", "setting": "R128A_F420V + Bradi_1g07930.1 (Event 2), 8.75 g ai/ha", "result": 2.3}, {"measurement": "injury on a 0-9 point scale", "setting": "R128A_F420V + Bradi_1g07930.1 (Event 2), 17.5 g ai/ha", "result": 1.5}, {"measurement": "injury on a 0-9 point scale", "setting": "R128A_F420V + Bradi_1g07930.1 (Event 2), 35 g ai/ha", "result": 1.0}, {"measurement": "injury on a 0-9 point scale", "setting": "R128A_F420V + Bradi_1g07930.1 (Event 2), 70 g ai/ha", "result": 3.0}, {"measurement": "injury on a 0-9 point scale", "setting": "R128A_F420V + Bradi_1g07930.1 (Event 2), 140 g ai/ha", "result": 3.0}, {"measurement": "injury on a 0-9 point scale", "setting": "wild type, 4.375 g ai/ha", "result": 8.0}, {"measurement": "injury on a 0-9 point scale", "setting": "wild type, 8.75 g ai/ha", "result": 8.0}, {"measurement": "injury on a 0-9 point scale", "setting": "wild type, 17.5 g ai/ha", "result": 8.0}, {"measurement": "injury on a 0-9 point scale", "setting": "wild type, 35 g ai/ha", "result": 8.3}, {"measurement": "injury on a 0-9 point scale", "setting": "wild type, 70 g ai/ha", "result": 8.3}, {"measurement": "injury on a 0-9 point scale", "setting": "wild type, 140 g ai/ha", "result": 8.3}]}]}
